What was measured:
[1] = tested on: transgenic corn lines; test: Field test of MS2 translation repression system transgenic corn lines; assay type: in vivo; details: 32 oz/acre Roundup® at the 6-8 leaf stage; transgenic TRS corn lines
Protocol: Field tests are conducted to evaluate the vegetative tolerance and male sterility of transgenic corn lines selected from the greenhouse tests. Lines for the field trial are selected based on previous scores showing good to excellent vegetative tolerance, very high or complete male sterility induced by glyphosate, and available seed supply. The pedigree of plants in the field test is either [(Ro×B73)×B73] or (B73×Ro). Based on these pedigrees, it is expected that half of the plants in a plot would be killed by glyphosate (formulated Roundup®) application, because they would not contain the transgene.
The field test is set up in two blocks, each block containing four groups of plots that would receive a single spray treatment. The treatments are (1) no spray, (2) 32 oz/acre Roundup® at the 1-2 leaf stage, (3) 32 oz/acre Roundup® at the 4-5 leaf stage, and (4) 32 oz/acre Roundup® at the 6-8 leaf stage. Plants are scored for male fertility when they began to flower, and scoring is repeated every 1-2 days for about eight days. Observations included the length of time between emergence of the tassel from the first plants and from the last plant in each plot. A sample of the anthers is collected from each plant, and the viability of pollen is judged with the aid of a hand-held microscope.

[2] = tested on: non-transgenic parental control plant (M202); test: Glyphosate treatment of non-transgenic parental control rice; assay type: in vivo; details: 64 oz./A glyphosate
From the text: The anther-specific promoter P-Ta.1674-19 is amplified from wheat genomic DNA by Genome Walker™ as a HindIII/BglII fragment, digested with these two enzymes, and the fragment ligated into pMON42180 (FIG. 3) digested with the same enzymes, resulting in pMON52000. The plant expression vector pMON52001 (FIG. 27) is constructed by taking the Not I fragment containing of P-Ta. 1674-19/I-Zm.Hsp70/MS2. CP:en/T-AGRTU.nos from pMON52000 and ligating into pMON42916 (FIG. 7) digested with Not I. pMON42438 (FIG. 28) and pMON42439 (FIG. 29) are constructed by replacing the wheat P-Ta. 1674-19 promoter element of pMON52001 with corn anther-specific promoters P-700353038 and P-70053844, respectively. pMON42945 (FIG. 30) is constructed by ligating the Not I fragment consisting of P-L1482830/I-Zm.Hsp70/MS2.CP:en/T-AGRTU.nos into pMON42916. These promoter elements are isolated from wheat and corn anther DNA libraries by Genome Walker™. Rice variety M202 is transformed by Agrobacterium-mediated transformation. […] Vegetative tolerance to the glyphosate is visually evaluated 21 DAT (day after treatment) based on a scale of 0 to 5 (as discussed above). […] Male sterility is scored at maturity by counting the number of empty florets and dividing by the total number of florets (filled plus empty) in each panicle.

## O=C(O)CNCP(=O)(O)O [glyphosate, N-phosphonomethylglycine]
[1]
  male sterility under field conditions: very effective for producing male sterility
[2]
  effect of the glyphosate treatment on the non-transgenic parental control plant: killed

From patent US20020062499A1, “Methods for translational repression of gene expression in plants” (priority 2000, published 2002)
